No end group written: not given here.
Experiments:
[1] = Double-immunodiffusion against 0111:B4 LPS; assay type: binding, Escherichia coli; settings: 0.8% agarose, 16 h at 20° C.; data not shown
Procedure: Double-immunodiffusion of the peptides of the invention against ‘rough’ R-type E. coli D31m4 Re-LPS (List Biological Laboratories Inc., Calif.) or the structurally more complex ‘smooth’ S-type E. coli 0111:B4 LPS (Sigma Chemical Co., Rockford, Ill.) was performed in 0.8% (w/v) agarose containing 50 mM Tris and 0.1% (w/v) Triton X100, pH 7.5. for 16 h at 20° C. PmB and BPI(85-102) were included as control compounds for comparative purposes. The microprecipitates formed were visualized by Coommassie brilliant blue staining. […] Since the amount of precipitate formed is a function of valency, the peptides of the invention appear to be capable of a high degree of intermolecular binding of LPS molecules via the Lipid A moieties. […] The degree of precipitation of endotoxin by the synthetic peptides according to the invention was determined by measurement of the optical density of insoluble complexes formed at 340 nm (FIG. 2). […] Binding characteristics of biotinylated derivatives of the synthetic peptides BP1, BP2, BP2.1 and the control peptide BPI(85-102) were determined on ELISA microtiter plates coated with E. coli D31m4 Lipid A. Specific binding of the biotinylated peptides to the immobilized Lipid A was determined by development with Streptavidin-HRP and 3, 5, 3′, 5′ tetra-methylbenzidine (TMB) substrate and expressed as the corrected optical density at 450 nm. […]

TNF-α production = assay: TNF-α in whole blood ex vivo, peptide added before LPS challenge; assay type: cell-based, human
Procedure: FIG. 12. Effect of pre-challenge addition of synthetic peptides on TNF-a levels induced by E. coli 0111:B4 LPS in whole blood ex vivo. The synthetic peptides BP2, BP2.1 or BP2.2 were added to whole blood containing heparin at 2 I.U/ml at the concentrations indicated and incubated for 10 min at 37° C. TNF-α concentrations were measured after incubation for 4 h at 37° C. subsequent to addition of E. coli 0111:B4 LPS at 1 ng/ml. The values represent the means of triplicate experiments. Controls only contained added LPS.
To determine whether addition of synthetic peptide to whole blood ex vivo prior to endotoxin challenge was effective in endotoxin neutralization assayed in terms of cytokine production, a synthetic peptide of the invention BP2, and the analogues BP2.1 or BP2.2 were added at concentrations of 2.5 to 20 μg/ml to whole blood and incubated for 10 min at 37° C. prior to the addition of 1 ng/ml E. coli 0111:B4 LPS. TNF-α concentrations were determined as previously described. […] The structurally related LPS-binding synthetic peptide analogues BP2.1 and BP2.2 were ineffective in endotoxin neutralization under these conditions.

[2] = ELISA binding to immobilized endotoxins of increasing complexity, effect of plasma; parameters: species or system Escherichia coli
Procedure: FIG. 4. Effect of endotoxin complexity and plasma concentration on the binding of synthetic peptide BP2 of the invention to immobilized LPS. Coated ELISA microtiter plates containing E.coli D31m4 Lipid A, Re, J5 or 0111:B4 LPS were incubated with synthetic peptide at a concentration of 40 ng/ml in the presence of plasma at dilutions to 10% (v/v). Binding activity was determined by the ELISA microplate lipid A binding assay as previously described.
Double-immunodiffusion of the peptides of the invention against ‘rough’ R-type E. coli D31m4 Re-LPS (List Biological Laboratories Inc., Calif.) or the structurally more complex ‘smooth’ S-type E. coli 0111:B4 LPS (Sigma Chemical Co., Rockford, Ill.) was performed in 0.8% (w/v) agarose containing 50 mM Tris and 0.1% (w/v) Triton X100, pH 7.5. for 16 h at 20° C. PmB and BPI(85-102) were included as control compounds for comparative purposes. The microprecipitates formed were visualized by Coommassie brilliant blue staining. […] Since the amount of precipitate formed is a function of valency, the peptides of the invention appear to be capable of a high degree of intermolecular binding of LPS molecules via the Lipid A moieties. […] The degree of precipitation of endotoxin by the synthetic peptides according to the invention was determined by measurement of the optical density of insoluble complexes formed at 340 nm (FIG. 2). […]

[3] = Endotoxin Inhibition ELISA (EIE), competitive inhibition of Lipid A binding; parameters: species or system Escherichia coli; settings: biotinylated BP2; 1 pg/ml E. coli 0111:B4 LPS
Procedure: FIG. 6. Competitive inhibition of binding of synthetic peptide BP2 to immobilized lipid A by endotoxin. Biotinylated BP2 peptide in the indicated concentration range was pre-incubated with E. coli 0111:B4 LPS at 1 pg/ml for 20 min at 23° C. and the residual endotoxin binding activity was determined with the use of a lipid A binding ELISA microplate assay. Individual values are the means of triplicate experiments corrected for non-specific binding.
FIGS. 7A and 7B. Detection of endotoxin in solution with a Lipid A binding assay, the endotoxin inhibition ELISA (EIE) microplate assay. Dose-response of residual LPS binding activity of synthetic peptide BP2 at 8 ng/ml after pre-incubation with E. coli 0111:B4 LPS in the ranges from 0.1 to 1000 pg/ml (Panel A) or from 0.1 to 100 pg/ml (Panel B).
Capture of the TAG labeled J5 LPS by immobilized synthetic peptide was quantitated by electrochemiluminescence detection subsequent to washing steps with phosphate buffer containing 0.1% (w/v) Triton X100 to remove excess unbound LPS. […] This confirms the high capacity of immobilized peptides of the invention for endotoxin in solution. […] LPS with high affinity and are universal lipid A binding ligands. […]

[4] = Capture of TAG-labeled endotoxin by immobilized peptide (ECL); assay type: binding, Escherichia coli; settings: biotinylated BP2 on streptavidin beads; TAG-labeled J5 LPS
Procedure: FIGS. 5A and 5B. Capture of labeled endotoxin by immobilized synthetic peptide. 2 ng of biotinylated synthetic peptide BP2, immobilized on 20 μg of streptavidin-coated supramagnetic polystyrene beads (Dynabeads M-280, Dynal A. S., Oslo, Norway) was incubated with the indicated amounts of chemiluminescent TAG-labeled E. coli J5 LPS for 20 min at 23° C. The amount of captured endotoxin, after a washing cycle with Phosphate buffer containing 0.1% (v/v) Triton X100, was determined by electochemiluminescence detection (ECL) using an Origen Analyser (Igen Inc., Rockville, Mass.). […] The values are the means of triplicate determinations corrected for non-specific binding.
Capture of the TAG labeled J5 LPS by immobilized synthetic peptide was quantitated by electrochemiluminescence detection subsequent to washing steps with phosphate buffer containing 0.1% (w/v) Triton X100 to remove excess unbound LPS. […] This confirms the high capacity of immobilized peptides of the invention for endotoxin in solution. […] LPS with high affinity and are universal lipid A binding ligands. The above mentioned microplate experiments were employed to determine the endotoxin binding activity and specificity of the synthetic peptides and formed the basis for the development of a novel highly sensitive endotoxin assay. […] The same degree of concentration-dependent inhibition was observed when various amounts of added endotoxin were assayed directly in plasma dilutions.

Ile-Lys-Ile-Ser-Gly-Lys-Trp-Lys-Ala-Gin-Lys-Arg-Phe-Leu-Lys-Met-Ser-Gly-(Cys) (IKISGKWKAQKRFLKMSGC; listed as Homo sapiens) [BPI(85-102), reference compound]
precipitation of 0111 LPS [1]: considerably less

GKWKLFKKAFKKFLKILAC-OH [BP2, Gly-Lys-Trp-Lys-Leu-Phe-Lys-Lys-Ala-Phe-Lys-Lys-Phe-Leu-Lys-Ile-Leu-Ala-Cys]
endotoxin neutralization (TNF-α production) (TNF-α production; 2.5 to 20 μg/ml added 10 min before 1 ng/ml LPS): dose-dependent inhibition
inhibition of cytokine (TNF-α) production (TNF-α production; peptide 20 μg/ml added 10 min before 1 ng/ml LPS): 57%
degree of binding versus complexity of immobilized LPS ([2]; peptide 40 ng/ml): decreases with increasing complexity of immobilized LPS
effect of plasma on binding to endotoxins ([2]; up to 5% (v/v) heat-treated, clarified plasma): no significant effect
inhibition of binding of peptide to immobilized Lipid A [3]: 65%
molar excess of LPS up to which binding response is linear [4]: 2 fold
molar excess of endotoxin at saturation [4]: 8 fold
stochiometric ratio of peptide to LPS up to which capture is linear [4]: 1 to 2
